From patent US7632870B2, “Composition based on substituted 1,3-diphenylprop-2-en-1-one derivatives, preparation and uses thereof” (Genfit, priority 2002, dated 2009)

Key:
PPARα = molecular target: T1, PPARα (Homo sapiens, UniProt Q07869); assay: PPARα/Gal4 transactivation system in RK13 cells (luciferase reporter); type: cell-based, rabbit; conditions: 24 hours
T1 construct: expressed in transfected cells; host or cells: RK13 cells
T1 sequence (Q07869 239-466 limits assumed): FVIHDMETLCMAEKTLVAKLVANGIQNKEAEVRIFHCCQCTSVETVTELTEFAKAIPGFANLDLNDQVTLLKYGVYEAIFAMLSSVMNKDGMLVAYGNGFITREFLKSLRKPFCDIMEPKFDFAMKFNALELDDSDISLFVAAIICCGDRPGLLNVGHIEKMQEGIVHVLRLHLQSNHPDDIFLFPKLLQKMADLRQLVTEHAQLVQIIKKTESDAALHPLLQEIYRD
Description: RK13 cells were incubated with the different compounds at concentrations of 10, 30 and 100 μM or 1, 10 and 100 μM for 24 hours. The results are expressed as the induction factor (luminescent signal relative to untreated cells) after the different treatments.
PPAR activation was tested in vitro in RK13 fibroblast cell lines by measuring the transcriptional activity of chimeras composed of the DNA binding domain of the yeast gal4 transcription factor and the ligand binding domain of the different PPARs. These latter results were then confirmed in cell lines according to the following protocols:
RK13 cells were from ECACC (Porton Down, UK) and were grown in DMEM medium supplemented with 10% (V/N) fetal calf serum, 100 U/ml penicillin (Gibco, Paisley, UK) and 2 mM L-glutamine (Gibco, Paisley, UK). The culture medium was changed every two days. Cells were kept at 37° C. in a humidified 95% air/5% CO2 atmosphere.
The plasmids pG5TkpGL3, pRL-CMV, pGal4-hPPRAα, pGal4-hPPRAγ and pGal4-φ have been described by Raspe, Madsen et al. (1999). The pGal4-mPPRAα and pGal4-hPPRAγ constructs were obtained by cloning into the pGal4-φ vector of PCR-amplified DNA fragments corresponding to the DEF domains of the human PPARα and PPRAγ nuclear receptors.
[…] At the end of the experiment, the cells were lysed (Gibco, Paisley, UK) and luciferase activity was determined with a Dual-Luciferase™ Reporter Assay System kit (Promega, Madison, Wis., USA) according to the supplier's instructions as previously described (Raspe, Madsen et al. 1999).

LDL = assay: Protection against LDL oxidation by copper (conjugated diene formation); type: biochemical; conditions: compound at 10^-4M
Description: LDL oxidation is an important alteration and plays a predominant role in the establishment and development of atherosclerosis (Jurgens, Hoff et al. 1987). […] Unless otherwise indicated, the reagents were from Sigma (St Quentin, France).
LDL were prepared according to the method described by Lebeau et al. (Lebeau, Furman et al. 2000).
The solutions of test compounds were prepared at 10^−2 M concentration in bicarbonate buffer (pH 9) and diluted in PBS to obtain final concentrations ranging from 0.1 to 100 μM for a total ethanol concentration of 1% (V/V).
Prior to oxidation, EDTA was removed from the LDL preparation by dialysis. Oxidation then took place at 30° C. by addition of 100 μl of 16.6 μM CuSO4 solution to 160 μL of LDL (125 μg protein/ml) and 20 μl of a test compound solution. The formation of dienes, the species under observation, was followed by measuring optical density at 234 nm in the samples treated with the compounds but in the presence or absence of copper. Optical density at 234 nm was measured every 10 minutes for 8 hours in a thermostated spectrophotometer (Tecan Ultra 380). The analyses were performed in triplicate. The compounds were considered to have antioxidant activity when they induced a longer lag phase and reduced the rate of oxidation and the amount of dienes formed in comparison with the control sample. […] FIGS. 1, 2 and 3 give an example of the results illustrating the antioxidant properties of compounds 2 and 5.

[1] = system: Apo E2/E2 transgenic mice; assay: Effects on triglyceride and cholesterol metabolism in vivo
Description: Apo E2/E2 transgenic mice were kept on a 12-hour light/dark cycle at a constant temperature of 20±3° C. After a 1 week acclimation, the mice were weighed and divided into groups of 6 animals selected so that body weight would be uniformly distributed. The test compounds were suspended in carboxymethylcellulose and administered by intragastric gavage at the indicated doses, once a day for 7 or 8 days. Animals had access to food and water ad libitum. At the end of the experiment the animals were weighed and sacrificed under anesthesia. Blood was collected on EDTA. Plasma was prepared by centrifugation at 3000 rpm for 20 minutes. Liver samples were taken and stored frozen in liquid nitrogen for subsequent analysis.
Serum lipid concentrations (total cholesterol and free cholesterol, triglycerides and phospholipids) were determined by a colorimetric assay (Boehringer, Mannheim, Germany) according to the supplier's instructions. Serum concentrations of apolipoproteins AI, AII and CIII were determined as previously described (Raspe et al. J. Lipid Res. 40, 2099-2110, 1999, Asset G et al., Lipids, 34, 39-44, 1999).

Cc1cc(/C=C/C(=O)c2ccc(Br)cc2O)cc(C)c1OC(C)(C)C(=O)O [Compound 25, 1-[2-hydroxy-4-bromophenyl]-3-[3,5-dimethyl-4-carboxydimethylmethyloxyphenyl]prop-2-en-1-one]
Induction factor (luminescent signal relative to untreated cells) (PPARα; 1 μM): 13.48
Induction factor (luminescent signal relative to untreated cells) (PPARα; 10 μM): 21.03
Induction factor (luminescent signal relative to untreated cells) (PPARα; 100 μM): 7.01

COc1cc(Cl)ccc1C(=O)/C=C/c1cc(C)c(OC(C)(C)C(=O)O)c(C)c1 [Compound 37, 1-[2-methyloxy-4-chlorophenyl]-3-[3,5-dimethyl-4-carboxydimethylmethyloxyphenyl]prop-2-en-1-one]
Induction factor (luminescent signal relative to untreated cells) (PPARα; 1 μM): 24.55
Induction factor (luminescent signal relative to untreated cells) (PPARα; 10 μM): 27
Induction factor (luminescent signal relative to untreated cells) (PPARα; 10 μM, listed as Cp37): 27.83
Induction factor (luminescent signal relative to untreated cells) (PPARα; 100 μM): 0.02

CCCCCCCc1ccc(C(=O)/C=C/c2cc(C)c(OC(C)(C)C(=O)OC(C)(C)C)c(C)c2)cc1 [Compound 38, 1-[4-heptylphenyl]-3-[3,5-dimethyl-4-tertbutyloxycarbonyldimethylmethyloxyphenyl]prop-2-en-1-one]
Induction factor (luminescent signal relative to untreated cells) (PPARα; 1 μM): 14.70
Induction factor (luminescent signal relative to untreated cells) (PPARα; 10 μM): 22
Induction factor (luminescent signal relative to untreated cells) (PPARα; 10 μM, listed as Cp38): 22.22
Induction factor (luminescent signal relative to untreated cells) (PPARα; 100 μM): 0.311

CC(C)(Oc1ccc(C(=O)/C=C/c2ccc(Cl)cc2)c(O)c1)C(=O)O [Compound 18, 1-[2-hydroxy-4-carboxydimethylmethyloxyphenyl]-3-[4-chlorophenyil] prop-2-en-1-one]
lag phase of conjugated diene formation (LDL; FIG. 1-4, copper alone 178 minutes): 241 min
rate of conjugated diene formation (LDL; FIG. 1-5, copper alone 1.6): 1.4 nmol/min/mg of LDL
maximum amount of conjugated dienes formed (LDL; FIG. 1-6, copper alone 353): 305 nmol per mg of LDL

COc1ccccc1C(=O)/C=C/c1cc(C)c(OC(C)(C)C(=O)O)c(C)c1 [Compound 31, 1-[2-methoxyphenyl]-3-[3,5-dimethyl-4-carboxydimethylmethyloxyphenyl]prop-2-en-1-one]
Induction factor (luminescent signal relative to untreated cells) (PPARα; 1 μM): 3.77
Induction factor (luminescent signal relative to untreated cells) (PPARα; 100 μM): 1.21

Cc1cc(/C=C/C(=O)c2ccc(Cl)cc2O)cc(C)c1OC(C)(C)C(=O)O [Compound 7, 1-[2-hydroxy-4-chlorophenyl]-3-[3,5-dimethyl-4-carboxydimethylmethyloxyphenyl]prop-2-en-1-one]
Induction factor (luminescent signal relative to untreated cells) (PPARα; 10 μM): 36.48
Induction factor (luminescent signal relative to untreated cells) (PPARα; 30 μM): 50.37
Induction factor (luminescent signal relative to untreated cells) (PPARα; 100 μM, listed as Cp7): 37.84
triglycerides in large sized lipoparticles (exclusion chromatography) ([1]; gavage 200 mg/kg for 7 days, FIG. 3-3): decreased
cholesterol in large sized lipoparticles (exclusion chromatography) ([1]; gavage 200 mg/kg for 7 days, FIG. 3-4): decreased

CC(C)(Oc1ccc(/C=C/C(=O)c2ccccc2O)cc1)C(=O)O [Compound 4, 1-[2-hydroxyhenyl]-3-[4-carboxydimethylmethyloxyphenyl]pron-2-en-1-one]
Induction factor (luminescent signal relative to untreated cells) (PPARα; 10 μM): 4
Induction factor (luminescent signal relative to untreated cells) (PPARα; 10 μM, listed as Cp4): 3.99
Induction factor (luminescent signal relative to untreated cells) (PPARα; 30 μM): 22
Induction factor (luminescent signal relative to untreated cells) (PPARα; 30 μM, listed as Cp4): 22.15
Induction factor (luminescent signal relative to untreated cells) (PPARα; 100 μM): 60
Induction factor (luminescent signal relative to untreated cells) (PPARα; 100 μM, listed as Cp4): 61.07

CC(C)(Oc1ccc(C(=O)/C=C/c2cc(C(C)(C)C)c(O)c(C(C)(C)C)c2)c(O)c1)C(=O)O [Compound 2, 1-[2-hydroxy-4-carboxydimethylmethyloxyphenyl]-3-[3.5-ditertbutyl-4-hydroxyphenyl]prop-2-en-1-one]
lag phase of conjugated diene formation (LDL; FIG. 1-1, copper alone 111 minutes): more than 480 minutes
rate of conjugated diene formation (LDL; FIG. 1-2, copper alone 2): not measurable because too low
maximum amount of conjugated dienes formed (LDL; FIG. 1-3, copper alone 348): 54.4 nmol per mg of LDL
decrease in conjugated diene formation (LDL; FIG. 1-3, versus copper alone): 84%

Cc1cc(/C=C/C(=O)c2ccc(Br)cc2)cc(C)c1OC(C)(C)C(=O)O [Compound 41, 1-[4-bromophenyl]-3-[3,5-dimethyl-4-carboxydimethylmethyloxyphenyl]prop-2-en-1-one]
Induction factor (luminescent signal relative to untreated cells) (PPARα; 1 μM): 34.61
Induction factor (luminescent signal relative to untreated cells) (PPARα; 10 μM): 31
Induction factor (luminescent signal relative to untreated cells) (PPARα; 10 μM, listed as Cp41): 31.18
Induction factor (luminescent signal relative to untreated cells) (PPARα; 100 μM): 3.39
triglycerides in large sized lipoparticles (exclusion chromatography) ([1]; 50 mg/kg/day for 8 days, FIG. 3-11): decrease
cholesterol in large sized lipoparticles (exclusion chromatography) ([1]; 50 mg/kg/day for 8 days, FIG. 3-12): decrease

CC(C)(Oc1ccc(C(=O)/C=C/c2cc(Br)c(O)c(Br)c2)c(O)c1)C(=O)O [Compound 8, 1-[2-hydroxy-4-carboxydimethylmethyloxyphenyl]-3-[3.5-dibromo-4-hydroxyphenyl]prop-2-en-1-one]
Induction factor (luminescent signal relative to untreated cells) (PPARα; 10 μM): 0.62
Induction factor (luminescent signal relative to untreated cells) (PPARα; 30 μM): 1.27
Induction factor (luminescent signal relative to untreated cells) (PPARα; 100 μM): 10
Induction factor (luminescent signal relative to untreated cells) (PPARα; 100 μM, listed as Cp8): 9.98

Cc1cc(/C=C/C(=O)c2ccccc2O)cc(C)c1OC(C)(C)C(=O)O [Compound 11, 1-[2-hydroxyphenyl]-3-[3,5-dimethyl-4-carboxydimethylmethyloxyphenyl]prop-2-en-1-one]
Induction factor (luminescent signal relative to untreated cells) (PPARα; 1 μM): 1.20
Induction factor (luminescent signal relative to untreated cells) (PPARα; 10 μM): 1.39
Induction factor (luminescent signal relative to untreated cells) (PPARα; 100 μM, listed as Cp11): 10.19
